Results: patent US20260297060A1, “COMPOUNDS FOR THE DEGRADATION OF MUTANT BRAF” (C4 THERAPEUTICS, INC., priority 2023, published 2026)
Where two headings read alike, the source gives them in different places.

Assays:
[1] = target: T1, BRAF V600E (Homo sapiens, UniProt P15056+Q96SW2, V600E); assay: BRAF V600E HiBiT Degradation Assay; type: cell-based
T1 construct: knock-in of the HiBiT tag to the endogenous BRAF V600E locus; host or cells: A375.10 (A375 clonal line, CRISPR HiBiT knock-in at the endogenous BRAF V600E locus)
T1 sequence (P15056 whole entry V600E): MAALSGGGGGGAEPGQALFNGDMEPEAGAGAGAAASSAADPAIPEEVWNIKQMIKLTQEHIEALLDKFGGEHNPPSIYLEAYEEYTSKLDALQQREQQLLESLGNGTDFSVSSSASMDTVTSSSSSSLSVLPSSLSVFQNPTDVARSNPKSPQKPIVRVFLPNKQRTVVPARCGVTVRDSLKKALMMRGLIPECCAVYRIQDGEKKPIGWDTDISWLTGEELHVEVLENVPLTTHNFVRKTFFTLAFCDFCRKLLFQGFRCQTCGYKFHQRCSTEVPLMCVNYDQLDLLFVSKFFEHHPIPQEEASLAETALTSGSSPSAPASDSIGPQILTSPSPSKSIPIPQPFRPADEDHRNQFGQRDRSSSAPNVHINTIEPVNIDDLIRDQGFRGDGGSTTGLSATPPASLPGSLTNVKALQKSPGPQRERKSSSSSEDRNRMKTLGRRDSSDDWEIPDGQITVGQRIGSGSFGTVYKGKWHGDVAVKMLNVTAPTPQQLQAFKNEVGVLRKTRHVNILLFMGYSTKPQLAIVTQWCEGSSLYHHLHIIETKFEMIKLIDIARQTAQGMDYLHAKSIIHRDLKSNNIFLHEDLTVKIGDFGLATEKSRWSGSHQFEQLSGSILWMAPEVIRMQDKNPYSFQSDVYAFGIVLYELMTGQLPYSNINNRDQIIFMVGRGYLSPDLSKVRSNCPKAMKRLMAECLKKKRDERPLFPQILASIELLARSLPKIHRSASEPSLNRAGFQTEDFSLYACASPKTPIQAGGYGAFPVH
T1 sequence (Q96SW2 whole entry): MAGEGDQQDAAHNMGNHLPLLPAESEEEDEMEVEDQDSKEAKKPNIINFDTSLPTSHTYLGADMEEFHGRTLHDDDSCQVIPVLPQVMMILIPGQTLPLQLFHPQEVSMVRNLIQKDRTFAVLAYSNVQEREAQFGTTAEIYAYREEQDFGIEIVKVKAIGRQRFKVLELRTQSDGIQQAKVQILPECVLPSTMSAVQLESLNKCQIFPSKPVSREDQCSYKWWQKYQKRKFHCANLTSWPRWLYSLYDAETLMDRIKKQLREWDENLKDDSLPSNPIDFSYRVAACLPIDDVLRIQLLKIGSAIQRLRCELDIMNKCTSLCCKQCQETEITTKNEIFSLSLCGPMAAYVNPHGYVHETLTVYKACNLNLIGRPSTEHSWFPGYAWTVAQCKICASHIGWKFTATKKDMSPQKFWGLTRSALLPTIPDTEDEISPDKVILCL
T1 sequence (Q16531 whole entry partner): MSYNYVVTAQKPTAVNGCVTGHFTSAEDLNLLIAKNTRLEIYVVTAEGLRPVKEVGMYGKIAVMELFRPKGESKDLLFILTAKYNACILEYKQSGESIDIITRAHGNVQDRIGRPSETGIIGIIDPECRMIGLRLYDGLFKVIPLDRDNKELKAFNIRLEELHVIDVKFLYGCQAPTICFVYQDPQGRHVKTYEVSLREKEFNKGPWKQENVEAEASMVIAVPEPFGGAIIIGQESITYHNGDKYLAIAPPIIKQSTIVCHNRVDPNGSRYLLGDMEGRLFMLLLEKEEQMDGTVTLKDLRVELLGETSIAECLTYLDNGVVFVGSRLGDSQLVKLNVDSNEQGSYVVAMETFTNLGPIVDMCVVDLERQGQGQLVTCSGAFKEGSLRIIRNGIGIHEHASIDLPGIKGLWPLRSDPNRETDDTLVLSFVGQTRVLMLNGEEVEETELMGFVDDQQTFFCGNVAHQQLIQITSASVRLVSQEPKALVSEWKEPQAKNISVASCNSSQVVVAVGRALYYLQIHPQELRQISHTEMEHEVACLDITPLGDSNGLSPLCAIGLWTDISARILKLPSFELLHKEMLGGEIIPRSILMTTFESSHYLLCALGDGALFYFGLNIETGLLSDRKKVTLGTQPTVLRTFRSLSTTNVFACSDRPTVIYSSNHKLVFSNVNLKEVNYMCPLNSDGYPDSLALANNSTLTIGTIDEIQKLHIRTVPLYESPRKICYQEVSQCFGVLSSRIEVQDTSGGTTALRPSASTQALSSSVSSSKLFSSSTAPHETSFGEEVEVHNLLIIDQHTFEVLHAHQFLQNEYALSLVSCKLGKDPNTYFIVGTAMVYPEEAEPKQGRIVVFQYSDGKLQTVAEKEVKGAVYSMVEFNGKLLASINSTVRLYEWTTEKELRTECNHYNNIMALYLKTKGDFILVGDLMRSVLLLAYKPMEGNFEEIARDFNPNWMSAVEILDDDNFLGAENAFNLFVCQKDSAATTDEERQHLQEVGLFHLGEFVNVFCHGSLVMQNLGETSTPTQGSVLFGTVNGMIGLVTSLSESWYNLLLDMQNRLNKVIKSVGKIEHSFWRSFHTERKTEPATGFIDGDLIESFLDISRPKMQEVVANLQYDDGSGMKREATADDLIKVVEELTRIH
How it was run: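 Endogenous HiBiT knock-in on BRAF V600E in A375 cells (clone A375.10); 11-point half-log series, top 10 μM, 2, 6 or 24 h at 37° C. Lytic HiBiT luminescence, background-subtracted, normalized to DMSO; 4-parameter fit gives DC50, Emax (residual protein) and IP (inflection point).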

[2] = system: A375-NRAS^Q61K cells; assay: CTGlo Cell Viability Assay, A375-NRAS^Q61K (A375.11) cells, 96 hours; type: cell-based, human; conditions: A375.11 (A375-NRAS^Q61K) cells; for Emax / CTGlo A375.11 96 hours Emax: lowest % viability achieved
How it was run: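 Viability as CellTiter-Glo ATP luminescence after 96 h compound exposure at 37 °C; A375.11 (BRAF V600E/NRAS Q61K) cells at 250/well, top final concentration 10 μM in half-log steps. Signal was background-corrected and set relative to DMSO controls. A 4-parameter logistic fit gave GI50 (50% crossing) and Emax.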

[3] = A375.10 cells, BRAF V600E, 2 hours, inflection point, read-out: HiBiT-Degradation A375.10 BRAF 2 hours IP
[4] = A375.10 cells, BRAF V600E, 2 hours, read-out: HiBiT-Degradation A375.10 BRAF 2 hours DC50
[5] = A375.10 cells, HiBiT, BRAF V600E, 24 hours, read-out: HiBiT-Degradation A375.10 BRAF 24 hours DC50
[6] = A375.10 cells, HiBiT, BRAF V600E, 24 hours, read-out: HiBiT-Degradation A375.10 BRAF 24 hours Emax
[7] = A375.10 cells, HiBiT, BRAF V600E, 24 hours, read-out: HiBiT-Degradation A375.10 BRAF 24 hours IP
[8] = read-out: HiBiT-Degradation A375.10 BRAF 2 hours Emax, A375.10 cells, BRAF V600E, 2 hours, residual protein remaining
[9] = A375.10 cells, BRAF V600E, 2 hours, residual protein remaining
[10] = A375.10 cells, BRAF V600E, 2 hours, residual protein remaining, read-out: HiBiT-Degradation A375.10 BRAF 2 hours Emax

SMILES	DC50 [1, 3] [µM]	DC50 [1, 4] [µM]	DC50 [1, 5] [µM]	Emax [1, 6] [%]	DC50 [1, 7] [µM]	Emax [1, 8] [%]	GI50 [2] [µM]	HiBiT-Degradation A375.10 BRAF 2 hours Emax [1, 9]	Emax [1, 10] [%]	GI50 ([2]; Homo sapiens, 96 h) [µM]	HiBiT-Degradation A375.10 BRAF 2 hours Emax [1]	Emax ([2]; Homo sapiens, 96 h) [%]	CTGlo A375.11 96 hours Emax [2]
CCN(C)S(=O)(=O)Nc1ccc(F)c(Oc2ccc3ncn(C4CC5(C4)CN(C4CCC(c6cc7c(cc6F)c(N6CCC(=O)NC6=O)nn7C)CC4)C5)c(=O)c3c2)c1C#N (single isomer, unassigned) [Compound 203, 6-[2-cyano-3-[[ethyl(methyl)sulfamoyl]amino]-6-fluoro-phenoxy]-3-[2-[4-[3-(2,4-dioxohexahydropyrimidin-1-yl)-5-fluoro-1-methyl-indazol-6-yl]cyclohexyl]-2-azaspiro[3.3]heptan-6-yl]-4-oxo-quinazoline]	< 1	< 1	< 1	< 50	< 1	< 50	> 10	–	–	–	–	50 to 90	–
CN(CCO)S(=O)(=O)Nc1ccc(F)c(Oc2ccc3ncn([C@H]4COC5(CCC(N6CCC(c7cc8c(cc7F)c(N7CCC(=O)NC7=O)nn8C)C(F)(F)C6)CC5)C4)c(=O)c3c2)c1C#N (single isomer, unassigned) [Compound 212]	< 1	< 1	–	–	–	–	–	–	< 50	< 1	–	50 to 90	–
CCN(C)S(=O)(=O)Nc1ccc(F)c(Oc2ccc3ncc(OC4CC5(CCN(C6CCC(c7cc8c(cc7F)c(N7CCC(=O)NC7=O)nn8C)CC6)CC5)C4)nc3c2)c1C#N (single isomer, unassigned) [Compound 219, 7-[2-cyano-3-[[ethyl(methyl)sulfamoyl]amino]-6-fluoro-phenoxy]-2-[[7-[4-[3-(2,4-dioxohexahydropyrimidin-1-yl)-5-fluoro-1-methyl-indazol-6-yl]cyclohexyl]-7-azaspiro[3.5]nonan-2-yl]oxy]quinoxaline]	< 1	< 1	–	–	–	–	> 10	–	–	–	** (<90% and >50%)	–	*** (<=50%)
CCN(C)S(=O)(=O)Nc1ccc(F)c(Oc2ccc3ncn(C4CCC(N5CC6(CCN(c7cc8c(cc7F)c(N7CCC(=O)NC7=O)nn8C)CC6)C5)CC4)c(=O)c3c2)c1C#N (single isomer, unassigned) [Compound 222, 6-[2-cyano-3-[[ethyl(methyl)sulfamoyl]amino]-6-fluoro-phenoxy]-3-[4-[7-[3-(2,4-dioxohexahydropyrimidin-1-yl)-5-fluoro-1-methyl-indazol-6-yl]-2,7-diazaspiro[3.5]nonan-2-yl]cyclohexyl]-4-oxo-quinazoline]	< 1	< 1	–	–	–	–	< 1	*** (<=50%)	–	–	–	–	** (<90% and >50%)
CCN(C)S(=O)(=O)Nc1ccc(F)c(Oc2ccc3ncc(OCC4(F)CCN(C5CCC(c6cc7c(cc6F)c(N6CCC(=O)NC6=O)nn7C)CC5)CC4)nc3c2)c1C#N (single isomer, unassigned) [Compound 228, 7-[2-cyano-3-[[ethyl(methyl)sulfamoyl]amino]-6-fluoro-phenoxy]-2-[[1-[4-[3-(2,4-dioxohexahydropyrimidin-1-yl)-5-fluoro-1-methyl-indazol-6-yl]cyclohexyl]-4-fluoro-4-piperidyl]methoxy]quinoxaline]	< 1	1 to 10	–	–	–	–	–	–	50 to 90	1 to 10	–	50 to 90	–
CCN(C)S(=O)(=O)Nc1ccc(F)c(Oc2ccc3ncc(OCC4(F)CCN(C5CCC(c6cc7c(cc6F)c(N6CCC(=O)NC6=O)nn7C)CC5)CC4)nc3c2)c1C#N (single isomer, unassigned) [Compound 229, 7-[2-cyano-3-[[ethyl(methyl)sulfamoyl]amino]-6-fluoro-phenoxy]-2-[[1-[4-[3-(2,4-dioxohexahydropyrimidin-1-yl)-5-fluoro-1-methyl-indazol-6-yl]cyclohexyl]-4-fluoro-4-piperidyl]methoxy]quinoxaline]	< 1	< 1	–	–	–	–	< 1	*** (<=50%)	–	–	–	–	** (<90% and >50%)
CCN(C)S(=O)(=O)Nc1ccc(F)c(Oc2ccc3ncn([C@H]4COC5(C4)CN(C4CCC(c6cc7c(cc6F)c(N6CCC(=O)NC6=O)nn7C)CC4)C5)c(=O)c3c2)c1C#N (single isomer, unassigned) [Compound 236]	< 1	< 1	–	–	–	–	1 to 10	*** (<=50%)	–	–	–	–	** (<90% and >50%)

More lines, main results first:

DC50 [1, 3] [µM]	DC50 [1, 4] [µM]	DC50 [1, 5] [µM]	Emax [1, 6] [%]	DC50 [1, 7] [µM]	Emax [1, 8] [%]	GI50 [2] [µM]	HiBiT-Degradation A375.10 BRAF 2 hours Emax [1, 9]	Emax [1, 10] [%]	GI50 ([2]; Homo sapiens, 96 h) [µM]	HiBiT-Degradation A375.10 BRAF 2 hours Emax [1]	SMILES	Emax ([2]; Homo sapiens, 96 h) [%]	CTGlo A375.11 96 hours Emax [2]
< 1	> 10	–	–	–	–	> 10	** (<90% and >50%)	–	–	–	CCN(C)S(=O)(=O)Nc1ccc(F)c(Oc2ccc3ncn(C4CC5(CCN(C6CCC(c7cc8c(cc7F)c(N7CCC(=O)NC7=O)nn8C)CC6)C5)C4)c(=O)c3c2)c1C#N (single isomer, unassigned) [Compound 205, 6-[2-cyano-3-[[ethyl(methyl)sulfamoyl]amino]-6-fluoro-phenoxy]-3-[6-[4-[3-(2,4-dioxohexahydropyrimidin-1-yl)-5-fluoro-1-methyl-indazol-6-yl]cyclohexyl]-6-azaspiro[3.4]octan-2-yl]-4-oxo-quinazoline]	50 to 90	–
< 1	< 1	< 1	< 50	< 1	–	< 1	–	< 50	–	–	CCN(C)S(=O)(=O)Nc1ccc(F)c(Oc2ccc3ncn(C4CC5(CCN(C6CCC(c7cc8c(cc7F)c(N7CCC(=O)NC7=O)nn8C)CC6)C5)C4)c(=O)c3c2)c1C#N (single isomer, unassigned) [Compound 206, 6-[2-cyano-3-[[ethyl(methyl)sulfamoyl]amino]-6-fluoro-phenoxy]-3-[6-[4-[3-(2,4-dioxohexahydropyrimidin-1-yl)-5-fluoro-1-methyl-indazol-6-yl]cyclohexyl]-6-azaspiro[3.4]octan-2-yl]-4-oxo-quinazoline]	–	** (<90% and >50%)
< 1	< 1	–	–	–	–	< 1	*** (<=50%)	–	–	–	CN(CCO)S(=O)(=O)Nc1ccc(F)c(Oc2ccc3ncn([C@H]4COC5(CCC(N6CCC(c7cc8c(cc7F)c(N7CCC(=O)NC7=O)nn8C)C(F)(F)C6)CC5)C4)c(=O)c3c2)c1C#N (single isomer, unassigned) [Compound 214]	–	*** (<=50%)
< 1	< 1	–	–	–	–	–	–	< 50	1 to 10	–	CCN(C)S(=O)(=O)Nc1ccc(F)c(Oc2ccc3ncn(C4CCC(N5CC6(CCN(c7cc8c(cc7F)c(N7CCC(=O)NC7=O)nn8C)CC6)C5)CC4)c(=O)c3c2)c1C#N (single isomer, unassigned) [Compound 221, 6-[2-cyano-3-[[ethyl(methyl)sulfamoyl]amino]-6-fluoro-phenoxy]-3-[4-[7-[3-(2,4-dioxohexahydropyrimidin-1-yl)-5-fluoro-1-methyl-indazol-6-yl]-2,7-diazaspiro[3.5]nonan-2-yl]cyclohexyl]-4-oxo-quinazoline]	50 to 90	–
< 1	< 1	–	–	–	50 to 90	–	–	–	> 10	–	CCN(C)S(=O)(=O)Nc1ccc(F)c(Oc2ccc3ncnc(OC4CC5(C4)CN(C4CCC(c6cc7c(cc6F)c(N6CCC(=O)NC6=O)nn7C)CC4)C5)c3c2)c1C#N (single isomer, unassigned) [Compound 232, 6-[2-cyano-3-[[ethyl(methyl)sulfamoyl]amino]-6-fluoro-phenoxy]-4-[[2-[4-[3-(2,4-dioxohexahydropyrimidin-1-yl)-5-fluoro-1-methyl-indazol-6-yl]cyclohexyl]-2-azaspiro[3.3]heptan-6-yl]oxy]quinazoline]	50 to 90	–
< 1	< 1	–	–	–	–	> 10	–	–	–	** (<90% and >50%)	CCN(C)S(=O)(=O)Nc1ccc(F)c(Oc2ccc3ncnc(OC4CC5(C4)CN(C4CCC(c6cc7c(cc6F)c(N6CCC(=O)NC6=O)nn7C)CC4)C5)c3c2)c1C#N (single isomer, unassigned) [Compound 233, 6-[2-cyano-3-[[ethyl(methyl)sulfamoyl]amino]-6-fluoro-phenoxy]-4-[[2-[4-[3-(2,4-dioxohexahydropyrimidin-1-yl)-5-fluoro-1-methyl-indazol-6-yl]cyclohexyl]-2-azaspiro[3.3]heptan-6-yl]oxy]quinazoline]	–	** (<90% and >50%)
< 1	1 to 10	–	–	–	–	> 10	–	< 50	–	–	CCN(C)S(=O)(=O)Nc1ccc(F)c(Oc2ccc3ncn([C@H]4COC5(C4)CN(C4CCC(c6cc7c(cc6F)c(N6CCC(=O)NC6=O)nn7C)CC4)C5)c(=O)c3c2)c1C#N (single isomer, unassigned) [Compound 235]	50 to 90	–
